The target in data set [1] is Cytochrome P450 3A4 (Homo sapiens, UniProt P08684). Description: Inhibition of recombinant human CYP3A4.
Data set [2] is described as follows: Metabolic stability in human liver microsomes at 5 uM after 20 mins. Particulars: liver microsomes. Background: Liver microsomes are a subcellular fraction often used to study metabolism.
Data set [3] can be described thus: Metabolic stability in mouse liver microsomes at 5 uM after 20 mins. Particulars: liver microsomes.
The nature of data set [4]: Lipophilicity, log D of the compound. In kind it is physicochemical. Particulars: octanol/water.
Data set [5] is described as follows: Dissociation constant, pKa of the compound. It counts as physicochemical.
A short description of data set [6]: Apparent permeability in human Caco2 cells at 5 uM after 20 mins. Particulars: Caco-2. (Caco-2 monolayers are a common model of the intestinal barrier.)
Data set [7] in a line: Solubility of the compound in phosphate buffer at pH 7.4 by HPLC analysis. The following applies: phosphate buffer.
The target of data set [8] is T1, Phosphatidylinositol 4,5-bisphosphate 3-kinase catalytic subunit beta isoform (Homo sapiens, UniProt P42338). Description: Inhibition of PI3Kbeta-mediated Akt phosphorylation at S473 in PTEN-deficient human PC3 cells after 0.5 to 2 hrs by Immunoblotting assay. It counts as cell-based, PC-3. (Immunoblotting shows a protein as a band on a membrane.)
Data set [9] concerns the target Phosphatidylinositol 4,5-bisphosphate 3-kinase catalytic subunit gamma isoform (Homo sapiens, UniProt P48736). The data set can be described thus: Inhibition of C-terminal ploy-His-tagged human PI3Kgamma expressed in baculovirus-infected sf9 cells using PI(4,5)P2 as substrate after 15 mins by HTRF assay.
The target in data set [10] is T2, Phosphatidylinositol 4,5-bisphosphate 3-kinase catalytic subunit delta isoform (Homo sapiens, UniProt O00329).
T2 sequence (O00329 whole entry): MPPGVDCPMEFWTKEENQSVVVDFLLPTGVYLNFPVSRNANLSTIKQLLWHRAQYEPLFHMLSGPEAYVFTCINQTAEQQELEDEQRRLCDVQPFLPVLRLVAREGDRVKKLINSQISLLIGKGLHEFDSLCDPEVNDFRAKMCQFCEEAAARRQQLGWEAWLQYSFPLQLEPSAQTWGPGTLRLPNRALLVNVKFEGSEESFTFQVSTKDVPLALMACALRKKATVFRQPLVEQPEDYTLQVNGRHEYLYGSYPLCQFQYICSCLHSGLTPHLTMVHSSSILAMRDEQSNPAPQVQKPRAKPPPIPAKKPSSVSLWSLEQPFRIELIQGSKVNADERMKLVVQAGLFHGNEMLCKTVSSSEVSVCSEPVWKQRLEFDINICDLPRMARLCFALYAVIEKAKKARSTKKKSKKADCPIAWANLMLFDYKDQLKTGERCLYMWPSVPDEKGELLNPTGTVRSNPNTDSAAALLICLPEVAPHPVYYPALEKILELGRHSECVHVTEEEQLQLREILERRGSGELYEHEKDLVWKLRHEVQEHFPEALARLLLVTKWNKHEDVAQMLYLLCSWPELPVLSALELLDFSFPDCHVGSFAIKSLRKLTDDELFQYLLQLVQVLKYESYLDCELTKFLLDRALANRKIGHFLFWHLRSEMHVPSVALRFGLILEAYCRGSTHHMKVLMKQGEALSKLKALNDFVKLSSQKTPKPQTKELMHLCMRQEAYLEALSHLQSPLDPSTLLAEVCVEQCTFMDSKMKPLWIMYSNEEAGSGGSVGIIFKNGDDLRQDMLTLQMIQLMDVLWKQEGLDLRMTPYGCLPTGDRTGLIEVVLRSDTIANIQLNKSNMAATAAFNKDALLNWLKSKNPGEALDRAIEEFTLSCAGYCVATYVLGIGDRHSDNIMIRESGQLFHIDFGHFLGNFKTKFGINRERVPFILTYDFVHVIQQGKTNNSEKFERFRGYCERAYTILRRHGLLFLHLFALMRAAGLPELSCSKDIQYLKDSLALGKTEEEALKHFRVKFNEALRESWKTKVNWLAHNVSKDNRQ
The data set can be described thus: Inhibition of N-terminal ploy-His-tagged human PI3Kdelta expressed in baculovirus-infected sf9 cells using PI(4,5)P2 as substrate after 15 mins by HTRF assay.

Data set [11] deals with T1, Phosphatidylinositol 4,5-bisphosphate 3-kinase catalytic subunit beta isoform. Description: Inhibition of N-terminal ploy-His-tagged human PI3Kbeta expressed in baculovirus-infected sf21 cells using PI(4,5)P2 as substrate after 15 mins by HTRF assay.
Data set [12] addresses Phosphatidylinositol 4,5-bisphosphate 3-kinase catalytic subunit alpha isoform (Homo sapiens, UniProt P42336). The data set can be described thus: Inhibition of N-terminal ploy-His-tagged human PI3Kalpha expressed in baculovirus-infected sf9 cells using PI(4,5)P2 as substrate after 15 mins by HTRF assay.
Data set [13] deals with PC-3. Description: Antitumor activity against po dosed PTEN-deficient human PC3 cells xenografted in nude mouse assessed as tumor growth inhibition administered as qd measured for 52 days. In kind it is functional.

SMILES strings stand for the structures. In brackets after ≈: the same amount, converted by molar mass.

5 molecules from ChEMBL document CHEMBL3112424, “Discovery and optimization of pyrimidone indoline amide PI3Kβ inhibitors for the treatment of phosphatase and tensin homologue (PTEN)-deficient cancers” (J Med Chem, 2014) can be followed below.

Chain of Phosphatidylinositol 4,5-bisphosphate 3-kinase catalytic subunit gamma isoform (P48736 whole entry, canonical isoform): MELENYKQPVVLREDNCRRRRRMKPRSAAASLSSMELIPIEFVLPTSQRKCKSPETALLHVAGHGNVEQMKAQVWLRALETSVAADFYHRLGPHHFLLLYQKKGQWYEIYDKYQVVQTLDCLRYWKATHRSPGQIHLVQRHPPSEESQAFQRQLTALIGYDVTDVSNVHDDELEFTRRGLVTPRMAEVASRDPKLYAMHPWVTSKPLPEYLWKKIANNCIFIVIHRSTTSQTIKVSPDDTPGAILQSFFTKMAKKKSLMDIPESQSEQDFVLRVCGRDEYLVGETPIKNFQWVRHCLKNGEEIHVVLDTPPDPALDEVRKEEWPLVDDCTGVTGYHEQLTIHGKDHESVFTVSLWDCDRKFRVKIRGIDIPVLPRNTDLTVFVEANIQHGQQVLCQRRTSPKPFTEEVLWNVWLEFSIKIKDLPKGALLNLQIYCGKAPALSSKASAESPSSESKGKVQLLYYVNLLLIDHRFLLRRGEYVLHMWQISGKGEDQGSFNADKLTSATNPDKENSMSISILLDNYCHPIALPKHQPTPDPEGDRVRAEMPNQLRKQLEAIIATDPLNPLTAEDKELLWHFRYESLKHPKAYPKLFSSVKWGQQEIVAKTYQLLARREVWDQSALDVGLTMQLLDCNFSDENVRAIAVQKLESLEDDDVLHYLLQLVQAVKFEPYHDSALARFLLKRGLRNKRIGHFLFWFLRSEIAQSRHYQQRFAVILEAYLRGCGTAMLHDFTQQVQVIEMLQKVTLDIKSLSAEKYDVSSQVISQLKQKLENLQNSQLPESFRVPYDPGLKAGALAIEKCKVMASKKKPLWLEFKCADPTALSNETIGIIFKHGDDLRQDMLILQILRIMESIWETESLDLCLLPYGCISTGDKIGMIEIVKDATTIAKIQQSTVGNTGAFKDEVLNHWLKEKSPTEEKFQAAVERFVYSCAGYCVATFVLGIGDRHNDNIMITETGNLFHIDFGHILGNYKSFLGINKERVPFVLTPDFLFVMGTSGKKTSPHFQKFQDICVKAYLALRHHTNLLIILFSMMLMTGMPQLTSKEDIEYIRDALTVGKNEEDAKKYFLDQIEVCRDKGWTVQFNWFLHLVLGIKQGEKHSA
Chain of Phosphatidylinositol 4,5-bisphosphate 3-kinase catalytic subunit alpha isoform (P42336 whole entry, canonical isoform): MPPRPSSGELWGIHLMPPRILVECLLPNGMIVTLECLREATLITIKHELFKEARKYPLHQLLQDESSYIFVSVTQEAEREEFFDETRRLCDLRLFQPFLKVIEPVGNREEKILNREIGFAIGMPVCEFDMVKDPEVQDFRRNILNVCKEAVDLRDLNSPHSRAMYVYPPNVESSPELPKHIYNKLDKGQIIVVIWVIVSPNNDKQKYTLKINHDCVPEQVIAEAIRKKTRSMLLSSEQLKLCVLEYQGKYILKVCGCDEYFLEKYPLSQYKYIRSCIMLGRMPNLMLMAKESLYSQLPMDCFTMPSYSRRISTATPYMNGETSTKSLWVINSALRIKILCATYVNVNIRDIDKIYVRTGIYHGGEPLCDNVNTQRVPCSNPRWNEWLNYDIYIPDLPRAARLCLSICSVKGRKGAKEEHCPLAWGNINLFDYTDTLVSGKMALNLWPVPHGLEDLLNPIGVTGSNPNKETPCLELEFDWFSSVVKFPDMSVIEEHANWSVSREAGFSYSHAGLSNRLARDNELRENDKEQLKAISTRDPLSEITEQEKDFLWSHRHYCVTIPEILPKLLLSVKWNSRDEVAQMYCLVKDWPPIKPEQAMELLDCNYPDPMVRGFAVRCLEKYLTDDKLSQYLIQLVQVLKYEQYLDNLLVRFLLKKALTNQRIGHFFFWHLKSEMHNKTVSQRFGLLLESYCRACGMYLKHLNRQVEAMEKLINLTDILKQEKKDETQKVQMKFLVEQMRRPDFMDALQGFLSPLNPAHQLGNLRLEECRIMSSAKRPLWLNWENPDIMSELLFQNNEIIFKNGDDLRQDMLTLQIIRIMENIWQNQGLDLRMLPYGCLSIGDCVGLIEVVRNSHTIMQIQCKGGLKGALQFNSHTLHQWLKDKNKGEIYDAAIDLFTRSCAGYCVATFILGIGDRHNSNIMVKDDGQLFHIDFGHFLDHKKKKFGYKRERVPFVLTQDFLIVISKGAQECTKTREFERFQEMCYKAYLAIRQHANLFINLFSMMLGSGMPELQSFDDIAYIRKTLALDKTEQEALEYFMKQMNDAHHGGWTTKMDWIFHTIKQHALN
Chain of Cytochrome P450 3A4 (P08684 whole entry): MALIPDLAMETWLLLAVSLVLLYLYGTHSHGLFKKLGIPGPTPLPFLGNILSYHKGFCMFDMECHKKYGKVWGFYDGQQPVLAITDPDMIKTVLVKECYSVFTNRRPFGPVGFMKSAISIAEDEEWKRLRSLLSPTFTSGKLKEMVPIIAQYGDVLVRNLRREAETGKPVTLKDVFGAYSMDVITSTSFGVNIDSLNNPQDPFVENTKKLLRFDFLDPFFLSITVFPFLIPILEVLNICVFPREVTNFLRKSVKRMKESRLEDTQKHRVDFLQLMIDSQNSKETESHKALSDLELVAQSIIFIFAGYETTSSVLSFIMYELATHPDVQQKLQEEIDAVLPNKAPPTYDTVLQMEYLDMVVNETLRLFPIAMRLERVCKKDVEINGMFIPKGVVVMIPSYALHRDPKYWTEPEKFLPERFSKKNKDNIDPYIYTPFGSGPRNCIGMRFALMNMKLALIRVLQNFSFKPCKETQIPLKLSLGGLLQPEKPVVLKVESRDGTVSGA
T1 sequence (P42338 whole entry, canonical isoform): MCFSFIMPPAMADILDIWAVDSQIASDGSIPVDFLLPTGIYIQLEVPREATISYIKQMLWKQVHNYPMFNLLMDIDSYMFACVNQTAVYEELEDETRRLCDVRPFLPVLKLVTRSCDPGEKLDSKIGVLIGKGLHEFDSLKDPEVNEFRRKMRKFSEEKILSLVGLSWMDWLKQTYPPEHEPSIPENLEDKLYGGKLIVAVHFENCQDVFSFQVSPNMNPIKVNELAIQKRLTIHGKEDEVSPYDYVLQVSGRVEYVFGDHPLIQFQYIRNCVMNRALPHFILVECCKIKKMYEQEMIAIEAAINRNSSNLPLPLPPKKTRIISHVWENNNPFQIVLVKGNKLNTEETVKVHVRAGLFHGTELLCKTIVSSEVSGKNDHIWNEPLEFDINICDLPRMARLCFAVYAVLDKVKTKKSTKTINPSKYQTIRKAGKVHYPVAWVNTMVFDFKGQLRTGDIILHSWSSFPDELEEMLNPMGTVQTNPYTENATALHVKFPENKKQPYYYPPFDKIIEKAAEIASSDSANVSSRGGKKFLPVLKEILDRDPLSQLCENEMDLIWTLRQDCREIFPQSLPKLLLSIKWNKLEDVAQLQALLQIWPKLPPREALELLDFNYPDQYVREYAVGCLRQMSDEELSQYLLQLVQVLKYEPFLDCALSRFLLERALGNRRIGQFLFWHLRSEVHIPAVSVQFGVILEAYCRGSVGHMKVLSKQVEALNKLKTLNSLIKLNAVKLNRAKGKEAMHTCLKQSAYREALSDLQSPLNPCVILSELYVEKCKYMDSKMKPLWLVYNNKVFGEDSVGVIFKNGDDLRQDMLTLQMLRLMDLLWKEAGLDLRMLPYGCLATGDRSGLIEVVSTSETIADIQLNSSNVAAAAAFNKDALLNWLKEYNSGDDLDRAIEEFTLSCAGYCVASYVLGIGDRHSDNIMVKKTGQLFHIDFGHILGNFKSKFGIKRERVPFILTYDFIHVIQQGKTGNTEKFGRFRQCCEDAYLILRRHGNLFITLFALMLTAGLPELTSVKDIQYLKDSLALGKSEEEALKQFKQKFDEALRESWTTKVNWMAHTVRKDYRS

For the molecule `O=C(Cc1nc(N2CCOCC2)cc(=O)[nH]1)N1CCc2c(-c3cccnc3)cccc21`, the IC50 (commonly the point on the concentration scale where inhibition reaches its midpoint) was 40000 nM in data set [1]; 53 nM in data set [8]; 2460 nM in data set [9]; 7 nM in data set [10]; 17 nM in [11]; 361 nM in data set [12]. The share remaining (commonly what is left of the initial amount, in per cent) at 20 min, 5 µM in [2] turned out to be 29%; in data set [3] it was 49%. Also, the logD (commonly the decadic logarithm of the distribution of all forms, ionised or not, between an organic phase and buffer at a given pH) in data set [4] is 1.99. In data set [5], the pKa (in general, the pH at which an ionisable group is half protonated) is 4.5. For the same molecule, the Papp (in general, the rate of passage across a membrane or cell layer, normalised by area and donor concentration) at 20 min, 5 µM in data set [6] is 0.8 ×10⁻⁶ cm/s. Besides, in data set [7], the solubility (in general, the dissolved amount per volume that the medium holds) turned out to be 60 µM (≈ 25 µg/mL).

`O=C(Cc1nc(N2CCOCC2)cc(=O)[nH]1)N1CCc2cc(Cl)ccc21`: the IC50 in data set [1] was 40000 nM; in data set [8], 124 nM; in data set [9], 10000 nM; in data set [10], 4130 nM; in [11], 79 nM; in data set [12], 2020 nM. Also, the share remaining at 20 min, 5 µM in data set [2] was 34%; in data set [3], 36%. Moreover, the Papp at 20 min, 5 µM in [6] turned out to be 1.4 ×10⁻⁶ cm/s. The molecule also yielded a solubility in data set [7] of 3 µM (≈ 1.12 µg/mL).

Consider `O=C(Cc1nc(N2CCOCC2)cc(=O)[nH]1)N1CCc2c(-c3ccncc3)cccc21`, for which the IC50 amounted to 31000 nM in data set [1]; 94 nM in [8]; 1000 nM in data set [9]; 22 nM in [10]; 10 nM in data set [11]; 1000 nM in [12]. Besides, the fraction remaining at 20 min, 5 µM in [2] was determined as 43%; in [3] it was 44%. Further, the logD in data set [4] worked out at 1.99. Besides, in [5], the pKa is 4.5. Also, the Papp at 20 min, 5 µM in [6] amounted to 0.4 ×10⁻⁶ cm/s. In data set [7], this molecule returned a solubility of 69 µM (≈ 28.8 µg/mL).

Regarding `O=C(Cc1nc(N2CCOCC2)cc(=O)[nH]1)N1CCc2c(Cl)cccc21`, the IC50 worked out at 40000 nM in [1]; 3 nM in data set [8]; 1130 nM in data set [9]; 21 nM in data set [10]; 1 nM in data set [11]; 86 nM in data set [12]. The values for the share remaining at 20 min, 5 µM in data set [2] and in [3] were 18% and 27%, respectively. The Papp at 20 min, 5 µM in data set [6] was determined as 8.8 ×10⁻⁶ cm/s. The solubility in data set [7] was 5 µM (≈ 1.87 µg/mL).

In the case of `C[C@H]1c2cccc(O)c2C(=O)C2=C(O)[C@]3(O)C(=O)C(C(N)=O)=C(O)[C@@H](N(C)C)[C@@H]3[C@@H](O)[C@@H]21.O` [DOXYCYCLINE], the T/C (usually the result in the treated group divided by that in the control group, in per cent) in data set [13] is 49%.
